Patent US7205382B2, “Peptides, the production and use thereof for binding immunoglobulins” (Fresenius Medical Care Affina GmbH, priority 2000, dated 2007)
Each block holds one substance with its values, some of them ahead of it. Bridge positions count the residues as written; N and C are the ends. Square brackets hold non-standard residues; d marks the D form. Ends that are not written are not given here. cellulose = not defined here; βAla = NCCC(=O)O

Columns and labels:
Type in all cases: binding
Parameters in all cases: key: No binding of immunoglobulin for the defined peptide variant, detection negative: 0; Binding of immunoglobulin for the defined peptide variant, detection positive: +
[1] = system: serum albumin; experiment: Cellulose-immobilized 13-mer peptide variants incubated with serum albumin (negative control), anti-human IgG-AP detection; conditions: blocking buffer without addition, 3 h room temperature
Protocol: (§1) Peptides consisting of 13 amino acids were synthesized by solid phase synthesis (Houghten, 1985) on a cellulose matrix with (βA)(βA) as a spacer group.
(§2) The immobilized peptides were tested for their immunoglobulin binding capability by incubation with human IgG-Fc in a buffered solution and by incubation with human plasma.
(§3) Thus, the peptide variants immobilized on solid phases were washed with T-TBS buffer (136 mM NaCl, 1.6 mM KCl, 0.05% (v/v) Tween 20, 50 mM Tris-HCl, pH 8.0) and subsequently treated with blocking buffers (5% (w/v) saccharose, 4% (w/v) bovine serum albumin in T-TBS). Incubation of the immobilized peptides with IgG-Fc (1 μg/ml) in blocking buffer and human serum (diluted 1:10,000 in blocking buffer) was effected for 3 h at room temperature. For checking the specificity of the binding, buffered serum albumin solution (blocking buffer) without addition was included as a control. Thereafter, the peptide variants immobilized on the solid phases were washed three more times with T-TBS buffer.
(§4) After incubation with alkaline phosphatase-conjugated anti-human IgG antibody (1.2 μg/ml) in blocking buffer, detection of the immunoglobulin binding was effected by means of NBT (nitroblue tetrazolium chloride)/BCIP (5-bromo-4-chloro-3-indolyl phosphate toluidine salt) as a substrate (200 μl of parent solution (18.75 mg/ml NBT and 9.4 mg/ml BCIP in 67% (v/v) DMSO) in 10 ml developing buffer (100 mM Tris-HCl, 100 mM NaCl, 5 mM MgCl2, pH 9.5)).

[2] = system: immunoglobulins in human plasma; experiment: Cellulose-immobilized 13-mer peptide variants incubated with human plasma, anti-human IgG-AP detection; conditions: human plasma as sample, diluted 1:10,000 in blocking buffer, 3 h room temperature
Protocol: as §1, §2, §3, §4

[3] = system: human IgG-Fc; experiment: Cellulose-immobilized 13-mer peptide variants incubated with human IgG-Fc, anti-human IgG-AP detection; conditions: IgG-Fc 1 μg/ml in blocking buffer, 3 h room temperature
Protocol: as §1, §2, §3, §4

Substance: 07Y: cellulose-bound 13-mer variant DCAWHLYELVWCT-(βA)(βA) (DCAWHLYELVWCT-{βAla-βAla-cellulose}; disulfide 2-12 (inferred); not fully specified (N-terminus); printed as DCAWHLYELVWCT-(βA)(βA); reading uncertain)
Result for incubation with serum albumin (immunoglobulin binding detection) [1]: 0 | Result for incubation with human plasma (immunoglobulin binding detection) [2]: 0 | Result for incubation with human IgG-Fc (immunoglobulin binding detection) [3]: 0

Substance: 06E: cellulose-bound 13-mer variant DCAWHEGELVWCT-(βA)(βA) (DCAWHEGELVWCT[βAla][βAla]; disulfide 2-12 (inferred); not fully specified (N-terminus); printed as DCAWHEGELVWCT-(βA)(βA); also: cellulose-bound)
Result for incubation with serum albumin (immunoglobulin binding detection) [1]: 0 | Result for incubation with human plasma (immunoglobulin binding detection) [2]: 0 | Result for incubation with human IgG-Fc (immunoglobulin binding detection) [3]: +

Substance: 05D: cellulose-bound 13-mer variant DCAWDLGELVWCT-(βA)(βA) (disulfide 2-12 (inferred); not fully specified (N-terminus, C-terminus); printed as DCAWDLGELVWCT-(βA)(βA); also: cellulose-bound)
Result for incubation with serum albumin (immunoglobulin binding detection) [1]: 0 | Result for incubation with human plasma (immunoglobulin binding detection) [2]: 0 | Result for incubation with human IgG-Fc (immunoglobulin binding detection) [3]: 0

Substance: 04G: cellulose-bound 13-mer variant DCAGHLGELVWCT-(βA)(βA) (DCAGHLGELVWCT[βAla][βAla]; disulfide 2-12 (inferred); also: cellulose-bound)
Result for incubation with serum albumin (immunoglobulin binding detection) [1]: 0 | Result for incubation with human plasma (immunoglobulin binding detection) [2]: 0 | Result for incubation with human IgG-Fc (immunoglobulin binding detection) [3]: 0

Substance: 11C: cellulose-bound 13-mer variant DCAWHLGELVCCT-(βA)(βA) (DCAWHLGELVCCT-{βAla-βAla-cellulose}; not fully specified (bridges); printed as DCAWHLGELVCCT-(βA)(βA); cysteine pairing not given here; reading uncertain)
Result for incubation with serum albumin (immunoglobulin binding detection) [1]: 0 | Result for incubation with human plasma (immunoglobulin binding detection) [2]: 0 | Result for incubation with human IgG-Fc (immunoglobulin binding detection) [3]: 0

Substance: 10D: cellulose-bound 13-mer variant DCAWHLGELDWCT-(βA)(βA) (DCAWHLGELDWCT-{βAla-βAla-cellulose}; disulfide 2-12 (inferred); reading uncertain; also: printed as DCAWHLGELDWCT-(βA)(βA))
Result for incubation with serum albumin (immunoglobulin binding detection) [1]: 0 | Result for incubation with human plasma (immunoglobulin binding detection) [2]: 0 | Result for incubation with human IgG-Fc (immunoglobulin binding detection) [3]: 0

Substance: 05K: cellulose-bound 13-mer variant DCAWKLGELVWCT-(βA)(βA) (disulfide 2-12 (inferred); not fully specified (N-terminus, C-terminus); printed as DCAWKLGELVWCT-(βA)(βA); also: cellulose-bound)
Result for incubation with serum albumin (immunoglobulin binding detection) [1]: 0 | Result for incubation with human plasma (immunoglobulin binding detection) [2]: 0 | Result for incubation with human IgG-Fc (immunoglobulin binding detection) [3]: 0

Substance: 08I: cellulose-bound 13-mer variant DCAWHLGILVWCT-(βA)(βA) (DCAWHLGILVWCT-{βAla-βAla-cellulose}; disulfide 2-12 (inferred); not fully specified (N-terminus); printed as DCAWHLGILVWCT-(βA)(βA); reading uncertain)
Result for incubation with serum albumin (immunoglobulin binding detection) [1]: 0 | Result for incubation with human plasma (immunoglobulin binding detection) [2]: 0 | Result for incubation with human IgG-Fc (immunoglobulin binding detection) [3]: 0

Substance: 02P: cellulose-bound 13-mer variant DPAWHLGELVWCT-(βA)(βA) (DPAWHLGELVWCT[βAla][βAla]; not fully specified; printed as DPAWHLGELVWCT-(βA)(βA); also: cellulose-bound)
Result for incubation with serum albumin (immunoglobulin binding detection) [1]: 0 | Result for incubation with human plasma (immunoglobulin binding detection) [2]: 0 | Result for incubation with human IgG-Fc (immunoglobulin binding detection) [3]: 0

Substance: 10Q: cellulose-bound 13-mer variant DCAWHLGELQWCT-(βA)(βA) (DCAWHLGELQWCT-{βAla-βAla-cellulose}; disulfide 2-12 (inferred); reading uncertain; also: printed as DCAWHLGELQWCT-(βA)(βA))
Result for incubation with serum albumin (immunoglobulin binding detection) [1]: 0 | Result for incubation with human plasma (immunoglobulin binding detection) [2]: 0 | Result for incubation with human IgG-Fc (immunoglobulin binding detection) [3]: 0

Substance: 08Q: cellulose-bound 13-mer variant DCAWHLGQLVWCT-(βA)(βA) (DCAWHLGQLVWCT-{βAla-βAla-cellulose}; disulfide 2-12 (inferred); reading uncertain; also: printed as DCAWHLGQLVWCT-(βA)(βA))
Result for incubation with serum albumin (immunoglobulin binding detection) [1]: 0 | Result for incubation with human plasma (immunoglobulin binding detection) [2]: + | Result for incubation with human IgG-Fc (immunoglobulin binding detection) [3]: +

Next, values leading:

Result for incubation with serum albumin (immunoglobulin binding detection) [1]: 0 | Result for incubation with human plasma (immunoglobulin binding detection) [2]: 0 | Result for incubation with human IgG-Fc (immunoglobulin binding detection) [3]: 0
Substance: 05T: cellulose-bound 13-mer variant DCAWTLGELVWCT-(βA)(βA) (disulfide 2-12 (inferred); not fully specified (N-terminus, C-terminus); printed as DCAWTLGELVWCT-(βA)(βA); also: cellulose-bound)

Result for incubation with serum albumin (immunoglobulin binding detection) [1]: 0 | Result for incubation with human plasma (immunoglobulin binding detection) [2]: 0 | Result for incubation with human IgG-Fc (immunoglobulin binding detection) [3]: 0
Substance: 02S: cellulose-bound 13-mer variant DSAWHLGELVWCT-(βA)(βA) (DSAWHLGELVWCT[βAla][βAla]; not fully specified; printed as DSAWHLGELVWCT-(βA)(βA); also: cellulose-bound)

Result for incubation with serum albumin (immunoglobulin binding detection) [1]: 0 | Result for incubation with human plasma (immunoglobulin binding detection) [2]: 0 | Result for incubation with human IgG-Fc (immunoglobulin binding detection) [3]: +
Substance: 04I: cellulose-bound 13-mer variant DCAIHLGELVWCT-(βA)(βA) (DCAIHLGELVWCT[βAla][βAla]; disulfide 2-12 (inferred); also: cellulose-bound)

Result for incubation with serum albumin (immunoglobulin binding detection) [1]: 0 | Result for incubation with human plasma (immunoglobulin binding detection) [2]: 0 | Result for incubation with human IgG-Fc (immunoglobulin binding detection) [3]: 0
Substance: 12K: cellulose-bound 13-mer variant DCAWHLGELVWKT-(βA)(βA) (DCAWHLGELVWKT-{βAla-βAla-cellulose}; not fully specified; printed as DCAWHLGELVWKT-(βA)(βA); reading uncertain)

Result for incubation with serum albumin (immunoglobulin binding detection) [1]: 0 | Result for incubation with human plasma (immunoglobulin binding detection) [2]: 0 | Result for incubation with human IgG-Fc (immunoglobulin binding detection) [3]: +
Substance: 01K: cellulose-bound 13-mer variant KCAWHLGELVWCT-(βA)(βA) (KCAWHLGELVWCT-{βAla-βAla-cellulose}; disulfide 2-12 (inferred); reading uncertain; also: printed as KCAWHLGELVWCT-(βA)(βA))

Result for incubation with serum albumin (immunoglobulin binding detection) [1]: 0 | Result for incubation with human plasma (immunoglobulin binding detection) [2]: 0 | Result for incubation with human IgG-Fc (immunoglobulin binding detection) [3]: +
Substance: 03K: cellulose-bound 13-mer variant DCKWHLGELVWCT-(βA)(βA) (DCKWHLGELVWCT-{βAla-βAla-cellulose}; disulfide 2-12 (inferred); reading uncertain; also: printed as DCKWHLGELVWCT-(βA)(βA))

Result for incubation with serum albumin (immunoglobulin binding detection) [1]: 0 | Result for incubation with human plasma (immunoglobulin binding detection) [2]: 0 | Result for incubation with human IgG-Fc (immunoglobulin binding detection) [3]: 0
Substance: 12H: cellulose-bound 13-mer variant DCAWHLGELVWHT-(βA)(βA) (DCAWHLGELVWHT-{βAla-βAla-cellulose}; not fully specified; printed as DCAWHLGELVWHT-(βA)(βA); reading uncertain)
